The target of this test is GCN2 (Homo sapiens, UniProt Q9P2K8). Description: GCN2 enzymatic endpoint assay: phosphorylation of GFP-eIF2α measured by TR-FRET (Lanthascreen). The class given is biochemical. The conditions noted are these: tested as described in Example 77; compound and/or hydrochloride, dihydrochloride or trifluoroacetic acid salt; read-out: IC 50 Activity. In outline: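 Endpoint GCN2 reaction with low ATP (2 μM) and 80 nM GFP-eIF2α, room temperature, 90 minutes. Detection mix with EDTA and Tb-labelled antibody; 520 nm/495 nm emission ratio reported.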
Chain of GCN2 (Q9P2K8 whole entry): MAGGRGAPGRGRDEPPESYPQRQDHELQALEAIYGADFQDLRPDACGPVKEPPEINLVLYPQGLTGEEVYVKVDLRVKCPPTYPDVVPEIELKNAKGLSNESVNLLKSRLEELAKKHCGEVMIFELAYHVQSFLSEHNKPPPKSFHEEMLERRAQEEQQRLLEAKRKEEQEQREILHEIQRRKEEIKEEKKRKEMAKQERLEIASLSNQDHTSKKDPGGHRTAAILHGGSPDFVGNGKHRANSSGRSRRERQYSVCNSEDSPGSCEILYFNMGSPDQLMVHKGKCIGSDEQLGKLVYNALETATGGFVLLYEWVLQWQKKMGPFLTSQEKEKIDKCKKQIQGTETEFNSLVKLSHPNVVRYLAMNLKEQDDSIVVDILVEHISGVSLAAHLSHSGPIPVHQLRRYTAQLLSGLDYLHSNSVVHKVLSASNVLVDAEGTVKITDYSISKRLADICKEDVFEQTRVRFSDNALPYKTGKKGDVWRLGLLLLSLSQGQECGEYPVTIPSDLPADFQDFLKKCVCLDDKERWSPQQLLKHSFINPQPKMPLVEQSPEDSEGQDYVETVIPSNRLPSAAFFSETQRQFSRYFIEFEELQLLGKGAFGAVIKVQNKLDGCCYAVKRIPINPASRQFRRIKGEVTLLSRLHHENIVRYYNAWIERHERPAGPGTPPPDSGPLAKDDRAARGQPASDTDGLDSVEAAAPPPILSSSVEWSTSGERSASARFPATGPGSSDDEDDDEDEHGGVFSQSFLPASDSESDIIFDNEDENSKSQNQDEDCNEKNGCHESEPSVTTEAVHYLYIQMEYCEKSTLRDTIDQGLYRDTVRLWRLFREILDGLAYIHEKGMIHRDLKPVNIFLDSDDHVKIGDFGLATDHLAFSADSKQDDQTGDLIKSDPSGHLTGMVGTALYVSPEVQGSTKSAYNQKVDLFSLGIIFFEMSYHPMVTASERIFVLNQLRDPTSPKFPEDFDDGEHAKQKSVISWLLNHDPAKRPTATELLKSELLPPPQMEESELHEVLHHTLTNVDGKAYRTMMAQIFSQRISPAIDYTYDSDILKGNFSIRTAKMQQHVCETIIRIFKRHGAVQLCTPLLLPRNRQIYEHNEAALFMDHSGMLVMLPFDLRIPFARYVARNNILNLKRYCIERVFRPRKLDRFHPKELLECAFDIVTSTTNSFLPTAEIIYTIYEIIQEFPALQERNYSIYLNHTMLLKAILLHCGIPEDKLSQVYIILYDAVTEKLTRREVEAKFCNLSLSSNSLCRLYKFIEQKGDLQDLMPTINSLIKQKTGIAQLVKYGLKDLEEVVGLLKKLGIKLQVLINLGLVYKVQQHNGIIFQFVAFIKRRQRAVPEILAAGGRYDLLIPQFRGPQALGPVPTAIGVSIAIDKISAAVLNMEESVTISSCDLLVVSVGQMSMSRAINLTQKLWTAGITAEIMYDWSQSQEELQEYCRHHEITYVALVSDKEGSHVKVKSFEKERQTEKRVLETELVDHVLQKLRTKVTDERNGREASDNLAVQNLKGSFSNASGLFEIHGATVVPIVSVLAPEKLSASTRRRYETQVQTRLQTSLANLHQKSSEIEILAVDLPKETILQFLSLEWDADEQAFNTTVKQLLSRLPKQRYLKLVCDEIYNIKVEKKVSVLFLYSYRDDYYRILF
In general terms: In TR-FRET formats the signal depends on donor and acceptor labels being close together.
For the molecule `O=C([C@@H]1CC[C@@H](Nc2ncc3c(Br)nn(-c4cc(F)c5ncccc5c4)c3n2)C1)N1CCN2C(=O)CC[C@H]2C1` [(8aS)-2-[(1R,3R)-3-[[3-bromo-1-(8-fluoro-6-quinolyl)pyrazolo[3,4-d]pyrimidin-6-yl]amino]cyclopentane-carbonyl]-1,3,4,7,8,8a-hexahydro-pyrrolo[1,2-a]pyrazin-6-one], the IC50 is < 25 nM.
The value for `COCCNC(=O)[C@@H]1CC[C@@H](Nc2ncc3c(Br)nn(-c4ccc5ccncc5c4)c3n2)C1` [(1R,3R)-3-((3-bromo-1-(isoquinolin-7-yl)-1H-pyrazolo[3,4-d]pyrimidin-6-yl)amino)-N-(2-methoxyethyl)cyclopentane-1-carboxamide] was 25 to 200 nM; that for `CCNC(=O)[C@]1(C)CC[C@@H](Nc2ncc3c(Br)nn(-c4cc(F)c5ncccc5c4)c3n2)C1` [(1R,3R)-3-[[3-bromo-1-(8-fluoro-6-quinolyl)pyrazolo[3,4-d]pyrimidin-6-yl]amino]-N-ethyl-1-methyl-cyclopentanecarboxamide] was < 25 nM; that for `CNC(=O)[C@]1(C)CC[C@@H](Nc2ncc3c(Br)nn(-c4ccc(-c5nnc(CCOC)o5)cc4)c3n2)C1` [(1R,3R)-3-[[3-bromo-1-[4-[5-(2-methoxy-ethyl)-1,3,4-oxadiazol-2-yl]phenyl]pyrazolo [3,4-d]pyrimidin-6-yl]amino]-N,1-dimethyl-cyclopentanecarboxamide] was < 25 nM.
As for `CNC(=O)[C@]1(C)CC[C@@H](Nc2ncc3c(Br)nn(-c4cc(Cl)cc([C@@H]5COC(=O)N5)c4)c3n2)C1` [(1R,3R)-3-[[3-bromo-1-[3-chloro-5-[(4R)-2-oxooxazolidin-4-yl]phenyl]pyrazolo[3,4-d]pyrimidin-6-yl]amino]-N,1-dimethyl-cyclopentanecarboxamide], the IC50 is < 25 nM.
For `CNC(=O)[C@]1(C)CC[C@@H](Nc2ncc3c(Br)nn(-c4ccc5c(c4)OC(C)(C)C(=O)N5C)c3n2)C1` [(1R,3R)-3-[[3-bromo-1-(2,2,4-trimethyl-3-oxo-1,4-benzoxazin-7-yl)pyrazolo [3,4-d]pyrimidin-6-yl]amino]-N,1-dimethyl-cyclopentanecarboxamide], the IC50 lay within 25 to 200 nM.
The value for `CN(C)S(=O)(=O)C1CC[C@@H](Nc2ncc3c(Br)nn(-c4cc(F)c5ncccc5c4)c3n2)C1` (stereo partly drawn) [(3R)-3-((3-bromo-1-(8-fluoroquinolin-6-yl)-1H-pyrazolo[3,4-d]pyrimidin-6-yl)amino)-N,N-dimethylcyclopentane-1-sulfonamide] was 25 to 200 nM.
The value for `C[C@H]1CN(C(=O)[C@@H]2CC[C@@H](Nc3ncc4c(Br)nn(-c5ccc6ncccc6c5)c4n3)C2)CCO1` [((1R,3R)-3-((3-bromo-1-(quinolin-6-yl)-1H-pyrazolo[3,4-d]pyrimidin-6-yl)amino)cyclo-pentyl)((S)-2-methylmorpholino)methanone] was 25 to 200 nM; that for `CNC(=O)[C@]1(C)CC[C@@H](Nc2ncc3c(Br)nn(-c4cc(F)cc(CC#N)c4)c3n2)C1` [(1R,3R)-3-[[3-bromo-1-[3-(cyanomethyl)-5-fluoro-phenyl]pyrazolo[3,4-d]pyrimidin-6-yl]amino]-N,1-dimethyl-cyclopentane-carboxamide] was 25 to 200 nM.
Turning to `CNC(=O)[C@]1(C)CC[C@@H](Nc2ncc3c(Br)nn(-c4cc(Cl)cc(CCNS(C)(=O)=O)c4)c3n2)C1`, the IC50 was in the range of 25 to 200 nM.
For `COCCNC(=O)[C@@H]1CC[C@@H](Nc2ncc3c(Br)nn(-c4cc(Cl)c5ncccc5c4)c3n2)C1` [(1R,3R)-3-((3-bromo-1-(8-chloroquinolin-6-yl)-1H-pyrazolo[3,4-d]pyrimidin-6-yl)amino)-N-(2-methoxyethyl)cyclopentane-1-carboxamide], the IC50 lay in the range of 25 to 200 nM.
Consider `CN(C)S(=O)(=O)[C@@H]1CC[C@@H](Nc2ncc3c(Br)nn(-c4ccc5ncccc5c4)c3n2)C1` [(1R,3R)-3-((3-bromo-1-(quinolin-6-yl)-1H-pyrazolo[3,4-d]pyrimidin-6-yl)amino)-N,N-dimethylcyclopentane-1-sulfonamide], for which the IC50 was 25 to 200 nM.

The record behind these values is patent publication US11046699B2, “Pyrazolo-pyrimidin-amino-cycloalkyl compounds and their therapeutic uses” (RAPT THERAPEUTICS, INC., priority 2018, dated 2021).
